In US20240307342A1, “Treatment of the adverse cardiovascular effects of cannabinoids” (GreenStone Biosciences, Inc., priority 2022, published 2024):
Like-named read-outs stand apart in the source and are kept apart here.

Key:
hiPSC-ECs [1] = assay: monocyte adhesion to hiPSC-ECs; type: cell-based, human; conditions: Δ9-THC alone; genistein = with Δ9-THC
[2] = molecular target: G protein-coupled estrogen receptor (Homo sapiens, UniProt Q99527); conditions: agonist; cited from earlier work
[3] = not told; cited from earlier work
hiPSC-ECs [4] = assay: oxidative stress and inflammation readouts in hiPSC-ECs; type: cell-based, human; conditions: for TLR4 expression / expression of ROS-related genes NOX1 and iNOS / mRNA expression of antioxidant-related genes (SOD1, SOD2, CAT, GPX1) / expression of proinflammatory cytokines and chemokines / inflammation-related genes: Δ9-THC alone; for TLR4 expression / expression of ROS-related genes NOX1 and iNOS / mRNA expression of antioxidant-related genes (SOD1, SOD2, CAT, GPX1): genistein = with Δ9-THC; for expression of proinflammatory cytokines and chemokines / inflammation-related genes: genistein or AM6545 = reversal of the Δ9-THC-induced effect
C57BL/6J mice [5] = assay: 30-day C57BL/6J mouse model of Δ9-THC-induced endothelial dysfunction, oxidative stress and inflammation; conditions: for endothelial function (wire myograph, thoracic aorta): 30 days, genistein = Δ9-THC plus genistein; for circulating levels of glutathione / plasma interleukins IL-6, IL-3 and IL-10: Δ9-THC alone; for circulating levels of glutathione: genistein = co-treatment; for plasma interleukins IL-6, IL-3 and IL-10: genistein = cotreatment
Text: Seven-week-old male C57BL/6J mice were obtained from Jackson Laboratory (Bar Harbor, ME, USA). […] Organs were collected, weighed, and fixed with 4% paraformaldehyde (PFA). The thoracic aortas (TAs) were surgically dissected out and cleaned from the surrounding connective tissue for all groups. The TAs were transferred to ice-cold Krebs'-Henseleit solution and cut into segments of 2 mm. The artery segments were mounted in wire-myograph chambers for isometric tension recordings (DanishMyo Technology [DMT]).The chambers contained Krebs'-Henseleit solution. All chambers were aerated with 95% 02/5% CO2, and the temperature was kept constant at 37° C. to mimic physiological conditions. After a manual stabilization and normalization procedure, the PowerLab4/25-Chart7 acquisition systems (AD Instruments Ltd) was used to record force and convert it into tension. The TA segments were pre-constricted using either […] 5HT serotonin (5HT) or U46619. A cumulative application of acetylcholine ([…]) was performed, and the induced vascular dilatations were measured. Subsequently, concentration-response relationship curves were established for each group of 3 mice. Time-matched dimethylsulfoxide (DMSO) application was performed in a separate chamber as the control for all experiments.

human CB2 = human CB2 (Homo sapiens, UniProt P34972); conditions: reported as an agonist; cited from earlier work
ApoE^−/− mice = assay: ApoE−/− partial carotid artery ligation (PCAL) atherosclerosis model; type: in vivo, mouse; conditions: for plaque area (Oil Red O), ligated carotid artery: 10 days high-fat diet, genistein = cotreatment with Δ9-THC; for CD68-positive area / F4/80-positive area, ligated carotid artery: genistein = co-treatment with Δ9-THC
[6] = in vivo; cited from earlier work
C57BL/6J mice [7] = assay: neurobehavioral testing (Billy Martin tetrad); type: in vivo, mouse
Human subjects = assay: human study in subjects ingesting medicinal cannabinoids; type: in vivo; conditions: 1 or 5 mg/Kg/day versus placebo
[8] = test system: LDL receptor knock-out mice (B6.129S7-Ldlr^tm1Her/J); assay: atherosclerosis in LDL receptor knock-out mice on high-fat diet; type: in vivo, mouse; conditions: for serum lipid profiles or blood pressure: 12 weeks high-fat diet, genistein = cotreatment with Δ9-THC; for CD68-positive area in the aortic root (macrophage recruitment) / plaque size (Oil Red O; aortic root cross-sections and en face thoracic aorta): 12 weeks, genistein = co-treatment with Δ9-THC
Procedure: After 12 weeks, the mice were euthanized, and the atherosclerotic lesion area was examined by cross-sections of the aortic root and an en face analysis of the thoracic aorta. […] Macrophage recruitment in the aortic root was analyzed using aortic plaque stained with an anti-CD68 antibody.

CB1 [9] = molecular target: T1, CB1 (Homo sapiens, UniProt P21554); conditions: reported as an agonist; cited from earlier work
CB1 [10] = molecular target: T1, CB1; assay: CB1 radioligand binding assay
[11] = Yang et al. 2012; cited from earlier work
CB1 [12] = molecular target: T1, CB1; assay: in vitro GTPase assay; type: biochemical
[13] = test system: human endothelial cells (HUVECs and HCAECs); assay: cytotoxicity in human endothelial cells
human endothelial cells = assay: inflammation and antioxidant gene expression in human endothelial cells
hiPSC-ECs [14] = assay: cytotoxicity in hiPSC-ECs
[15] = test system: human cardiac fibroblasts-ventricular (NHCF-V); assay: cytotoxicity in cardiac fibroblasts
[16] = Δ9-THC 20 mg/kg i.p., 60 min post-dosing

T1 sequence (P21554 whole entry): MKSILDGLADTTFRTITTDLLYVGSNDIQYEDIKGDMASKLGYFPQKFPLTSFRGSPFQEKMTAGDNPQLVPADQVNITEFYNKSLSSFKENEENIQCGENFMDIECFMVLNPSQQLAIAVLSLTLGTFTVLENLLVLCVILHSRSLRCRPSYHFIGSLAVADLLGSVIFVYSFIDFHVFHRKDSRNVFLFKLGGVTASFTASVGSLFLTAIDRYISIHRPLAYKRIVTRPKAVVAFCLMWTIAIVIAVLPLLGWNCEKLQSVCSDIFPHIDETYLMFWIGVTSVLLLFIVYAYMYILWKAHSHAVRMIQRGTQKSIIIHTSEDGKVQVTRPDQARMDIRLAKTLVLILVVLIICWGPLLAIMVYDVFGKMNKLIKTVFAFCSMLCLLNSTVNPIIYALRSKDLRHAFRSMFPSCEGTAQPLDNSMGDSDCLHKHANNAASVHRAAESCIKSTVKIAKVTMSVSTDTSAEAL
human CB2, sequence (P34972 whole entry): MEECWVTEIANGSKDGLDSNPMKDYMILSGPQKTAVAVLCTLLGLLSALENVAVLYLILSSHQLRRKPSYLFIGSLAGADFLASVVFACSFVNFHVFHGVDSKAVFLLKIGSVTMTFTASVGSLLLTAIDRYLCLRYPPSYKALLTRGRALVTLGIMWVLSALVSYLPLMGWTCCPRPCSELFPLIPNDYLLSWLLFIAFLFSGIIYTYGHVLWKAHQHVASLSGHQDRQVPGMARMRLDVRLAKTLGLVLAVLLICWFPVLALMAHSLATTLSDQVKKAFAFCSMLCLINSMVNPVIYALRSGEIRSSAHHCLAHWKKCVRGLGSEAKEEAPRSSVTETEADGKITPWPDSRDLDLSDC
G protein-coupled estrogen receptor, sequence (Q99527 whole entry): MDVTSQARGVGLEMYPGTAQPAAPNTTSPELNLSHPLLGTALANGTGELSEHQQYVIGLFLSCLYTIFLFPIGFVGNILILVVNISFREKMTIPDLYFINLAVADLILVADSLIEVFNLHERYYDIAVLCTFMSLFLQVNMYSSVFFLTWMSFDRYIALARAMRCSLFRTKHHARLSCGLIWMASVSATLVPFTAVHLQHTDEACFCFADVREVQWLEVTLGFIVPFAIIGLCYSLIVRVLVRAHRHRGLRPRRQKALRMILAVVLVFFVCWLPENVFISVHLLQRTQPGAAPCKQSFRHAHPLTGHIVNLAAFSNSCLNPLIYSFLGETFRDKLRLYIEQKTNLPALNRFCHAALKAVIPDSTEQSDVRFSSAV

O=c1c(-c2ccc(O)cc2)coc2cc(O)cc(O)c12 [genistein, 5,7-dihydroxy-3-(4-hydroxyphenyl)-4H-1-benzopyran-4-one]
monocyte adhesion to hiPSC-ECs (hiPSC-ECs [1]): reversed | affinity [2]: 133 nM | cell wall permeability [3]: high cell wall permeability | NF-κB phosphorylation (hiPSC-ECs [4]; genistein with Δ9-THC): attenuated | TLR4 expression (hiPSC-ECs [4]): disrupted | expression of ROS-related genes NOX1 and iNOS (hiPSC-ECs [4]): salutatory effect | mRNA expression of antioxidant-related genes (SOD1, SOD2, CAT, GPX1) (hiPSC-ECs [4]): ameliorated | expression of proinflammatory cytokines and chemokines / inflammation-related genes (hiPSC-ECs [4]): reversed | endothelial function (wire myograph, thoracic aorta) (C57BL/6J mice [5]): mitigated | NF-κB phosphorylation and SOD expression in mouse serum (C57BL/6J mice [5]; with Δ9-THC): attenuated | mRNA expressions of inflammation induced by Δ9-THC in mouse thoracic artery tissues (C57BL/6J mice [5]; with Δ9-THC): ameliorated | oxidative stress-related gene expression (C57BL/6J mice [5]; with Δ9-THC): rescued | circulating levels of glutathione (C57BL/6J mice [5]): ameliorated | plasma interleukins IL-6, IL-3 and IL-10 (C57BL/6J mice [5]): significantly reduced | IC50 (human CB2): > 50000 nM | Ki (human CB2): > 50000 nM | plaque area (Oil Red O), ligated carotid artery (ApoE^−/− mice): ameliorated plaque size | CD68-positive area (ApoE^−/− mice): reduced | F4/80-positive area, ligated carotid artery (ApoE^−/− mice): decreased | bioavailability [6]: low bioavailability | Δ9-THC neurobehavioral effects (C57BL/6J mice [7]; genistein 50 mg/kg p.o. in co-treatment with Δ9-THC 20 mg/kg i.p.): could not attenuate | tetrad effects (C57BL/6J mice [7]; genistein alone, 50 mg/kg p.o.): did not affect tetrad effects | incidence of adverse cardiovascular effects of cannabinoid ingestion (Human subjects): dose-related lower incidence | serum lipid profiles or blood pressure [8]: Neither Δ^9-THC nor cotreatment with Δ^9-THC and genistein affected | CD68-positive area in the aortic root (macrophage recruitment) [8]: rescued | plaque size (Oil Red O; aortic root cross-sections and en face thoracic aorta) [8]: ameliorated plaque size | IC50 (CB1 [9]): 150 nM | IC50 (CB1 [10]): 150 nM | blood-brain barrier (BBB) penetration [11]: poor blood-brain barrier (BBB) penetration | mode of action against CB1 (CB1 [12]): neutral antagonist

Cc1c(C(=O)NN2CCS(=O)(=O)CC2)nn(-c2ccc(Cl)cc2Cl)c1-c1ccc(C#CCCC#N)cc1 [AM6545]
expression of proinflammatory cytokines and chemokines / inflammation-related genes (hiPSC-ECs [4]): reversed

Cc1c(C(=O)NN2CCCCC2)nn(-c2ccc(Cl)cc2Cl)c1-c1ccc(Cl)cc1 [rimonabant]
mRNA expressions of inflammation induced by Δ9-THC in mouse thoracic artery tissues (C57BL/6J mice [5]; with Δ9-THC): ameliorated

CCCCCc1cc(O)c2c(c1)OC(C)(C)[C@@H]1CCC(C)=C[C@@H]21 [Δ^9-THC, (6aR,10aR)-6,6,9-trimethyl-3-pentyl-6a,7,8,10a-tetrahydro-6H-benzo[c]chromen-1-ol]
monocyte adhesion to hiPSC-ECs (hiPSC-ECs [1]): increased adhesion | I kappa B (IκB) (hiPSC-ECs [4]): inhibited | TNFα concentration in the cell culture medium (hiPSC-ECs [4]): increased | hydrogen peroxide (H2O2) levels (hiPSC-ECs [4]; immunofluorescence staining): increased | duration of Δ9-THC-induced expression of proinflammatory cytokines and chemokines after the initial exposure (hiPSC-ECs [4]; Δ9-THC 48 hours, then wash-out, no genistein): 8 to 10 days | TLR4 expression (hiPSC-ECs [4]): induced | expression of ROS-related genes NOX1 and iNOS (hiPSC-ECs [4]): upregulated | mRNA expression of antioxidant-related genes (SOD1, SOD2, CAT, GPX1) (hiPSC-ECs [4]): decreased | expression of proinflammatory cytokines and chemokines / inflammation-related genes (hiPSC-ECs [4]): increased | endothelial function (wire myograph, thoracic aorta) (C57BL/6J mice [5]): induced endothelial dysfunction | plasma concentration of Δ9-THC (C57BL/6J mice [5]; intraperitoneal injection, LC-MS): ~100 ng/mL | circulating levels of glutathione (C57BL/6J mice [5]): decreased | plasma interleukins IL-6, IL-3 and IL-10 (C57BL/6J mice [5]): elevated | plaque area (Oil Red O), ligated carotid artery (ApoE^−/− mice): increased | CD68-positive area (ApoE^−/− mice): significantly increased | F4/80-positive area, ligated carotid artery (ApoE^−/− mice): significantly increased | analgesia (hot plate 55° C.) (C57BL/6J mice [7]; Δ9-THC 20 mg/kg i.p.): analgesia | hypothermia (rectal body temperature) (C57BL/6J mice [7]; [16]): hypothermia | mobility (open field activity chamber) (C57BL/6J mice [7]; [16]): decreased mobility | sedation (bar test) (C57BL/6J mice [7]; [16]): sedation | cytotoxicity [13]: induced cytotoxicity | antioxidant-related gene expression (human endothelial cells): reduced | expression of inflammation-related genes (human endothelial cells): induced | serum lipid profiles or blood pressure [8]: Neither Δ^9-THC nor cotreatment with Δ^9-THC and genistein affected | CD68-positive area in the aortic root (macrophage recruitment) [8]: significantly increased | plaque size (Oil Red O; aortic root cross-sections and en face thoracic aorta) [8]: significantly increased plaque size | cytotoxicity (hiPSC-ECs [14]): induced cytotoxicity | cytotoxicity [15]: without any adverse effect
